Measured values: US20140363379A1, “NUTRITIONAL APPROACH TO THE USE OF ERGOTHIONEINE AND VITAMIN D2 FOR HAIR, NAIL AND SKIN GROWTH” (ENTIA BIOSCIENCES, INC., priority 2011, published 2014)

Legend:
[1] = humans, after mushroom consumption (0 g, 8 g, 16 g doses); cited from earlier work
[2] = test system: glutathione; assay: Glutathione levels in plasma, cortex and midbrain of Parkinson's model mice, by glutathione assay; type: in vivo, mouse; settings: compared with knockout mice
Protocol: Matched cohorts of SNCA transgenic mouse model of PD were used to measure the therapeutic efficacy of ErgoD2™ to control movement disorder, improve grip strength, and lower alpha-synuclein in the cortex and/or midbrain of the PD animals. Additionally, alpha-synuclein was measured in the plasma, and glutathione was measured in the plasma, cortex and midbrain. IL-6 measurements and an immunohistochemistry study will also be performed on intestinal tissues to see if there are pathologic variances in intestinal function between cohorts, which could be associated with disease onset and progression.
Concentrations of glutathione present in midbrain homogenates (nM), as measured by glutathione assay.
Concentrations of glutathione present in cortex homogenates (nM), as measured by glutathione assay. Error bars represent±standard error. Glutathione is a major protective antioxidant in animal cells. It is present most abundantly in its reduced form (GSH) in healthy cells. The levels of GSH and glutathione disulfide (GSSG), the oxidized form, are used as indicators of oxidative stress and overall cell health. One of the well-established markers of PD is a decrease in glutathione levels in the substantia nigra (SN). This decrease is specific to the SN and is not observed in other sections of the PD brain.

[3] = test system: insulin resistance; settings: cited from earlier work

## C[N+](C)(C)[C@@H](Cc1c[nH]c(=S)[nH]1)C(=O)[O-] [L-Ergothioneine]
[1]
  time of peak of ET in red blood cells (RBC): 2 h

## CC(=O)N[C@@H](CS)C(=O)O [NAC, n-acetyl cysteine]
[2]
  cortex glutathione concentration, treated transgenic versus knockout mice: no significant differences

## vitamin D
[3]; bringing 25(OH)D levels above 80 nmol/L
  improvement of insulin resistance: 12%
[3]; increasing vitamin D levels from 25 to 75 nmol/L
  improvement in insulin sensitivity: 60%
